Experiment [1] relates to ASC. Description: Transwell migration of ASC towards SDF-1 in the presence of Diprotin A. The class given is cell-based, human. The conditions noted are these: Diprotin A 0, 1, 5, 10 mM on upper surface; SDF-1 50 μM in well; 24 h; crystal violet stained cells counted; FIG. 1. Here is the method:
ASC were obtained from lipoaspirates obtained from human adipose tissue from healthy adult donors. Lipoaspirates were washed twice with PBS, and digested at 37° C. for 30 minutes with 0.075% collagenase (Type I, Invitrogen, Carlsbad, Calif.) in PBS. The digested sample was washed with 10% of fetal bovine serum (FBS), treated with 160 mM CINH4, suspended in culture medium (DMEM containing 10% FBS) and filtered through a 40-μm nylon mesh. Cells were seeded (2-3×10^4 cells/cm^2) onto tissue culture flasks and expanded at 37° C. and 5% CO2, changing the culture medium every 7 days. Cells were passed to a new culture flask (1,000 cells/cm^2) when cultures reached 90% of confluence. Cells were phenotypically characterized by their capacity to differentiate into chondro-, osteo-, and adipo-genic lineages. A pool of 6 ASC samples from different donors (culture passage 4-6) was used.
ASC (10^4 cells) were seeded onto the upper surface of a Transwell permeable support insert with a pore size of 8 μm. The permeable supports were inserted into a 24 well plate. […]
Stained cells (i.e. those having migrated to the underside of the permeable support) were then counted. Total number of counted cells per experimental condition is shown (two inserts per condition were counted).

Experiment [2] concerns ASC. Description: IDO expression in ASC upon stimulation with pro-inflammatory mediators (RT-PCR and Western Blot). The class given is cell-based. The conditions noted are these: TNF-α at 50 ng/mi. In general terms: A western blot detects proteins with antibodies after separation by electrophoresis.

Entries after “also recorded” stand apart in the source; their conditions may differ.

As to Ile-Pro-Ile [Diprotin A], in experiment [1], the “number of migrating cells (ASC migration to the underside of the permeable support)” value is recorded as “increased migration of cells; also recorded: increased in proportion to the amount of Diprotin A”.

For the substance TNF-α, in experiment [2], the IDO expression result was “did not induce IDO expression”.

(Values after US20120020930A1, “METHODS FOR THE PREPARATION OF ADIPOSE DERIVED STEM CELLS AND UTILIZING SAID CELLS IN THE TREATMENT OF DISEASES” (CELLERIX, S.A., priority 2008, published 2012).)
